According to patent US20260297060A1, “COMPOUNDS FOR THE DEGRADATION OF MUTANT BRAF” (C4 THERAPEUTICS, INC., priority 2023, published 2026):
Like-named read-outs stand apart in the source and are kept apart here.

Target: T1, BRAF V600E (Homo sapiens, UniProt P15056+Q96SW2, V600E)
T1 construct: knock-in of the HiBiT tag to the endogenous BRAF V600E locus; host or cells: A375.10 (A375 clonal line, CRISPR HiBiT knock-in at the endogenous BRAF V600E locus)
Test: BRAF V600E HiBiT Degradation Assay
Assay type: cell-based
Outline: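 Endogenous HiBiT knock-in on BRAF V600E in A375 cells (clone A375.10); 11-point half-log series, top 10 μM, 2, 6 or 24 h at 37° C. Lytic HiBiT luminescence, background-subtracted, normalized to DMSO; 4-parameter fit gives DC50, Emax (residual protein) and IP (inflection point).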

[1] = A375.10 cells, BRAF V600E, 2 hours, inflection point, read-out: HiBiT-Degradation A375.10 BRAF 2 hours IP
[2] = A375.10 cells, BRAF V600E, 2 hours, read-out: HiBiT-Degradation A375.10 BRAF 2 hours DC50
[3] = A375.10 cells, BRAF V600E, 2 hours, residual protein remaining, read-out: HiBiT-Degradation A375.10 BRAF 2 hours Emax
[4] = A375.10 cells, BRAF V600E, 6 hours, inflection point, read-out: HiBiT-Degradation A375.10 BRAF 6 hours IP
[5] = A375.10 cells, BRAF V600E, 6 hours, read-out: HiBiT-Degradation A375.10 BRAF 6 hours DC50
[6] = A375.10 cells, BRAF V600E, 6 hours, residual protein remaining, read-out: HiBiT-Degradation A375.10 BRAF 6 hours Emax
[7] = A375.10 cells, HiBiT, BRAF V600E, 24 hours, read-out: HiBiT-Degradation A375.10 BRAF 24 hours DC50
[8] = A375.10 cells, HiBiT, BRAF V600E, 24 hours, read-out: HiBiT-Degradation A375.10 BRAF 24 hours Emax
[9] = A375.10 cells, HiBiT, BRAF V600E, 24 hours, read-out: HiBiT-Degradation A375.10 BRAF 24 hours IP
[10] = read-out: HiBiT-Degradation A375.10 BRAF 2 hours Emax, A375.10 cells, BRAF V600E, 2 hours, residual protein remaining

T1 sequence (P15056 whole entry V600E): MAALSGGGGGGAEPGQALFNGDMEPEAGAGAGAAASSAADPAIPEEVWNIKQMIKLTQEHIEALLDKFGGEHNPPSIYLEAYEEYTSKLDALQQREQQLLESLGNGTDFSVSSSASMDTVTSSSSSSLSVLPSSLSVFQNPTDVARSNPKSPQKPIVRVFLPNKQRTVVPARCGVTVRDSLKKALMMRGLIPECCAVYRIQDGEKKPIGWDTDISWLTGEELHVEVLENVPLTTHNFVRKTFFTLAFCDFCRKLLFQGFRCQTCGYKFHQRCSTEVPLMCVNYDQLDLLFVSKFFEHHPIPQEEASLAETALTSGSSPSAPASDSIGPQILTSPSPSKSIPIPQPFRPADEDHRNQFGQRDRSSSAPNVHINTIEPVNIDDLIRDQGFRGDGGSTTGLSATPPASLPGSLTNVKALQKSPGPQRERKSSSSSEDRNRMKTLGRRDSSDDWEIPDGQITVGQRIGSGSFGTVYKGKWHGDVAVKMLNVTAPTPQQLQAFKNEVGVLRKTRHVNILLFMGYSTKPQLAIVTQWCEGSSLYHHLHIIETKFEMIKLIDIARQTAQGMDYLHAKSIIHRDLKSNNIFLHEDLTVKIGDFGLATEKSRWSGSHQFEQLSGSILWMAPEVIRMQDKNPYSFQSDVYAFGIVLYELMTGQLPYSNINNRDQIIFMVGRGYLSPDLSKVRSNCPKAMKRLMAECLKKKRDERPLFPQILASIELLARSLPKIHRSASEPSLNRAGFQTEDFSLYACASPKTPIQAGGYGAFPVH
T1 sequence (Q96SW2 whole entry): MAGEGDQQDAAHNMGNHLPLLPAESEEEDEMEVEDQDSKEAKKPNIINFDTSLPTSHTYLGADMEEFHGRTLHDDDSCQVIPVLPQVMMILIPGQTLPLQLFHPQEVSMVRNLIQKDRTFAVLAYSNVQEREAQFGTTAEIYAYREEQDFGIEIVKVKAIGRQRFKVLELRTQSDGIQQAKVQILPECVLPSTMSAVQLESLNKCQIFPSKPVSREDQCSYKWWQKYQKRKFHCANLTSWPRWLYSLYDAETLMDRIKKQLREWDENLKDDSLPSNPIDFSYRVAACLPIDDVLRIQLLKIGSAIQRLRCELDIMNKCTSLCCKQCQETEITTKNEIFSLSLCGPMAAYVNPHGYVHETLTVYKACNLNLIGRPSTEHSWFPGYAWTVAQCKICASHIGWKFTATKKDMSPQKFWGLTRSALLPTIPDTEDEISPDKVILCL
T1 sequence (Q16531 whole entry partner): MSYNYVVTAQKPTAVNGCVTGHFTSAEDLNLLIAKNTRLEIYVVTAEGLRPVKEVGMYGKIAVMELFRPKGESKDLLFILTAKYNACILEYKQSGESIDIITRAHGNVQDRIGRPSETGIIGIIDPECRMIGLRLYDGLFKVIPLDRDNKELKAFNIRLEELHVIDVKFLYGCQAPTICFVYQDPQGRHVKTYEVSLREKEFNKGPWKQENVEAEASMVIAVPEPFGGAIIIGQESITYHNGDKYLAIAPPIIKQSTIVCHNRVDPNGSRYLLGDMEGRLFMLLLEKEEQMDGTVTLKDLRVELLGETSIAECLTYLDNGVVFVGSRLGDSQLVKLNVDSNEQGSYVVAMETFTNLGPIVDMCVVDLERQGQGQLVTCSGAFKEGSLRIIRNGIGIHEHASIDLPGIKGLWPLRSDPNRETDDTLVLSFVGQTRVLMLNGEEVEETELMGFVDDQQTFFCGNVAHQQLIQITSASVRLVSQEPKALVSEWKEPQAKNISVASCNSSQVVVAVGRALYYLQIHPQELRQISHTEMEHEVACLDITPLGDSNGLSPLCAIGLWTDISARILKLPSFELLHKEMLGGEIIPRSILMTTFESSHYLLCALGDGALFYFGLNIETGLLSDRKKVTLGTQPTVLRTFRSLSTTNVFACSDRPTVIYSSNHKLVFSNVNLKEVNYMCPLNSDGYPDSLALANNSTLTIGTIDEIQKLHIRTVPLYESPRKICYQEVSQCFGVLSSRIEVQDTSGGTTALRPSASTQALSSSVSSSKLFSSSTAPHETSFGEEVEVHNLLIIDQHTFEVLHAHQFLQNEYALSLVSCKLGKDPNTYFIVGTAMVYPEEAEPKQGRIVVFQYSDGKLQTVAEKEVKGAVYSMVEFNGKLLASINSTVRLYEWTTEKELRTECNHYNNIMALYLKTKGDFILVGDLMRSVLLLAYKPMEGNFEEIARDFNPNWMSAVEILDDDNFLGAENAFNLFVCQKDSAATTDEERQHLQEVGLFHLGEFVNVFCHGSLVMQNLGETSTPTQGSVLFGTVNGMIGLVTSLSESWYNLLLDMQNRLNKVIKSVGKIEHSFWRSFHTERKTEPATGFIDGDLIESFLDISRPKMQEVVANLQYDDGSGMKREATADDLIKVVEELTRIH

SMILES	DC50 [1] [µM]	DC50 [2] [µM]	Emax [3] [%]	DC50 [4] [µM]	DC50 [5] [µM]	Emax [6] [%]	DC50 [7] [µM]	Emax [8] [%]	DC50 [9] [µM]	Emax [10] [%]
Cn1nc(N2CCC(=O)NC2=O)c2cc(F)c(C3CCC(N4CCC5(CC4)CC(n4cnc6ccc(Oc7c(F)ccc(NS(=O)(=O)C8CCCC8)c7C#N)cc6c4=O)C5)CC3)cc21 (single isomer, unassigned) [Compound 93, N-[2-cyano-3-[3-[7-[4-[3-(2,4-dioxohexahydropyrimidin-1-yl)-5-fluoro-1-methyl-indazol-6-yl]cyclohexyl]-7-azaspiro[3.5]nonan-2-yl]-4-oxo-quinazolin-6-yl]oxy-4-fluoro-phenyl]cyclopentanesulfonamide]	< 1	< 1	–	< 1	< 1	< 50	< 1	< 50	< 1	< 50
CO[C@H]1CCN(S(=O)(=O)Nc2ccc(F)c(Oc3ccc4ncn(C5CC6(CCN(C7CCC(c8cc9c(cc8F)c(N8CCC(=O)NC8=O)nn9C)CC7)CC6)C5)c(=O)c4c3)c2C#N)C1 (single isomer, unassigned) [Compound 103]	< 1	< 1	< 50	< 1	< 1	< 50	< 1	< 50	< 1	–
CCN(C)S(=O)(=O)Nc1ccc(F)c(Oc2ccc3ncc(OC4CCN(C5CCC(c6ccc(NC7CCC(=O)NC7=O)cc6F)CC5)CC4)nc3c2)c1C#N (single isomer, unassigned) [Compound 110, 7-[2-cyano-3-[[ethyl(methyl)sulfamoyl]amino]-6-fluoro-phenoxy]-2-[[1-[4-[4-[(2,6-dioxo-3-piperidyl)amino]-2-fluoro-phenyl]cyclohexyl]-4-piperidyl]oxy]quinoxaline]	< 1	< 1	50 to 90	< 1	< 1	< 50	< 1	< 50	< 1	–
Cn1nc(N2CCC(=O)NC2=O)c2cc(F)c(C3CCC(N4CCC5(CC4)C[C@@H](n4cnc6ccc(Oc7c(F)ccc(NS(=O)(=O)C8CCCC8)c7C#N)cc6c4=O)CO5)CC3)cc21 (single isomer, unassigned) [Compound 113]	< 1	< 1	< 50	< 1	< 1	< 50	< 1	< 50	< 1	–
CCN(C)S(=O)(=O)Nc1ccc(F)c(Oc2ccc3ncc(OCC4CCN(C5CCC(c6cc7c(cc6F)c(N6CCC(=O)NC6=O)nn7C)CC5)CC4)nc3c2)c1C#N (single isomer, unassigned) [Compound 118, 7-[2-cyano-3-[[ethyl(methyl)sulfamoyl]amino]-6-fluoro-phenoxy]-2-[[1-[4-[3-(2,4-dioxohexahydropyrimidin-1-yl)-5-fluoro-1-methyl-indazol-6-yl]cyclohexyl]-4-piperidyl]methoxy]quinoxaline]	< 1	< 1	–	< 1	< 1	< 50	< 1	< 50	< 1	50 to 90
Cn1nc(N2CCC(=O)NC2=O)c2cc(F)c(C3CCC(N4CCC5(CC4)C[C@@H](n4cnc6ccc(Oc7c(F)ccc(NS(=O)(=O)N8CC[C@@H](F)C8)c7C#N)cc6c4=O)CO5)CC3)cc21 (single isomer, unassigned) [Compound 121]	< 1	< 1	< 50	< 1	< 1	< 50	< 1	< 50	< 1	–
Cn1nc(N2CCC(=O)NC2=O)c2cc(F)c(C3CCC(N4CCC5(CC4)CC(n4cnc6ccc(Oc7c(F)ccc(NS(=O)(=O)N8CC[C@@H](F)C8)c7C#N)cc6c4=O)C5)CC3)cc21 (single isomer, unassigned) [Compound 122]	< 1	< 1	< 50	< 1	< 1	< 50	< 1	< 50	< 1	–

Second part, the compound after the results:

DC50 [1] [µM]	DC50 [2] [µM]	Emax [3] [%]	DC50 [4] [µM]	DC50 [5] [µM]	Emax [6] [%]	DC50 [7] [µM]	Emax [8] [%]	DC50 [9] [µM]	Emax [10] [%]	SMILES
< 1	< 1	< 50	< 1	< 1	< 50	< 1	< 50	< 1	–	CC(C)S(=O)(=O)Nc1ccc(F)c(Oc2ccc3ncn([C@H]4COC5(CCN(C6CCC(c7cc8c(cc7F)c(N7CCC(=O)NC7=O)nn8C)CC6)CC5)C4)c(=O)c3c2)c1C#N (single isomer, unassigned) [Compound 87]
< 1	< 1	< 50	< 1	< 1	< 50	< 1	< 50	< 1	–	CCN(C)S(=O)(=O)Nc1ccc(F)c(Nc2ccc3ncn([C@@H]4COC5(CCN(C6CCC(c7ccc(NC8CCC(=O)NC8=O)cc7F)CC6)CC5)C4)c(=O)c3c2F)c1C#N (single isomer, unassigned) [Compound 90]
< 1	< 1	< 50	< 1	< 1	< 50	< 1	< 50	< 1	–	CC(C)S(=O)(=O)Nc1ccc(F)c(Oc2ccc3ncn([C@H]4COC5(CCN(C6CCC(c7ccc(NC8CCC(=O)NC8=O)cc7F)CC6)CC5)C4)c(=O)c3c2)c1C#N (single isomer, unassigned) [Compound 92]
< 1	< 1	< 50	< 1	< 1	< 50	< 1	< 50	< 1	–	CC(C)S(=O)(=O)Nc1ccc(F)c(Oc2ccc3ncn(C4CC5(CCN(C6CCC(c7cc8c(cc7F)c(N7CCC(=O)NC7=O)nn8C)CC6)CC5)C4)c(=O)c3c2)c1C#N (single isomer, unassigned) [Compound 95, N-[2-cyano-3-[3-[7-[4-[3-(2,4-dioxohexahydropyrimidin-1-yl)-5-fluoro-1-methyl-indazol-6-yl]cyclohexyl]-7-azaspiro[3.5]nonan-2-yl]-4-oxo-quinazolin-6-yl]oxy-4-fluoro-phenyl]propane-2-sulfonamide]
< 1	< 1	< 50	< 1	< 1	< 50	< 1	< 50	< 1	–	CO[C@@H]1CCN(S(=O)(=O)Nc2ccc(F)c(Oc3ccc4ncn([C@H]5COC6(CCN(C7CCC(c8cc9c(cc8F)c(N8CCC(=O)NC8=O)nn9C)CC7)CC6)C5)c(=O)c4c3)c2C#N)C1 (single isomer, unassigned) [Compound 100]
< 1	< 1	< 50	< 1	< 1	< 50	< 1	< 50	< 1	–	CO[C@@H]1CCN(S(=O)(=O)Nc2ccc(F)c(Oc3ccc4ncn(C5CC6(CCN(C7CCC(c8cc9c(cc8F)c(N8CCC(=O)NC8=O)nn9C)CC7)CC6)C5)c(=O)c4c3)c2C#N)C1 (single isomer, unassigned) [Compound 101]
< 1	< 1	< 50	< 1	< 1	< 50	< 1	< 50	< 1	–	CO[C@@H]1CCN(S(=O)(=O)Nc2ccc(F)c(Oc3ccc4ncn([C@H]5COC6(CCN(C7CCC(c8ccc(NC9CCC(=O)NC9=O)cc8F)CC7)CC6)C5)c(=O)c4c3)c2C#N)C1 (single isomer, unassigned) [Compound 109]
< 1	< 1	< 50	< 1	< 1	< 50	< 1	< 50	< 1	–	CO[C@H]1CCN(S(=O)(=O)Nc2ccc(F)c(Oc3ccc4ncn([C@H]5COC6(CCN(C7CCC(c8cc9c(cc8F)c(N8CCC(=O)NC8=O)nn9C)CC7)CC6)C5)c(=O)c4c3)c2C#N)C1 (single isomer, unassigned) [Compound 115]
< 1	< 1	< 50	< 1	< 1	< 50	< 1	< 50	< 1	–	CCN(C)S(=O)(=O)Nc1ccc(F)c(Oc2ccc3ncn(CC4CCN(C5CCC(c6cc7c(cc6F)c(N6CCC(=O)NC6=O)nn7C)CC5)CC4)c(=O)c3c2)c1C#N (single isomer, unassigned) [Compound 126, 6-[2-cyano-3-[[ethyl(methyl)sulfamoyl]amino]-6-fluoro-phenoxy]-3-[[1-[4-[3-(2,4-dioxohexahydropyrimidin-1-yl)-5-fluoro-1-methyl-indazol-6-yl]cyclohexyl]-4-piperidyl]methyl]-4-oxo-quinazoline]
